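In this assay, cells in 96-well plates receive the compound at five concentrations for 48 hours. Endpoints are linearly interpolated between the surrounding concentrations. GI50: concentration for 50% inhibition of growth. TGI denotes the concentration required for complete inhibition of growth.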
Experiments:
Test in all cases: NCI anticancer screen, dose series, 48 h
ACHN renal = tested on: ACHN renal
PC-3 prostate = tested on: PC-3 prostate
NCI-H460 lung = tested on: NCI-H460 lung
HCT-116 colon = tested on: HCT-116 colon
COLO 205 colon = tested on: COLO 205 colon
IGROV1 ovarian = tested on: IGROV1 ovarian
NCI-H226 lung = tested on: NCI-H226 lung
OVCAR-8 ovarian = tested on: OVCAR-8 ovarian
BT-549 breast = tested on: BT-549 breast
UACC-62 melanoma = tested on: UACC-62 melanoma
OVCAR-4 ovarian = tested on: OVCAR-4 ovarian
SR leukemia = tested on: SR leukemia
MALME-3M melanoma = tested on: MALME-3M melanoma
SF-268 CNS = tested on: SF-268 CNS
UO-31 renal = tested on: UO-31 renal
K-562 leukemia = tested on: K-562 leukemia
OVCAR-5 ovarian = tested on: OVCAR-5 ovarian
MCF7 breast = tested on: MCF7 breast
UACC-257 melanoma = tested on: UACC-257 melanoma
SF-539 CNS = tested on: SF-539 CNS
KM12 colon = tested on: KM12 colon
SN12C renal = tested on: SN12C renal
A549 NSCLC = tested on: A549 NSCLC
SK-MEL-5 melanoma = tested on: SK-MEL-5 melanoma
HCT-15 colon = tested on: HCT-15 colon
SK-MEL-2 melanoma = tested on: SK-MEL-2 melanoma
RXF 393 renal = tested on: RXF 393 renal
TK-10 renal = tested on: TK-10 renal
NCI-H23 lung = tested on: NCI-H23 lung
MDA-MB-435 = tested on: MDA-MB-435
M14 melanoma = tested on: M14 melanoma
HL-60(TB) leukemia = tested on: HL-60(TB) leukemia
HOP-92 NSCLC = tested on: HOP-92 NSCLC
MOLT-4 leukemia = tested on: MOLT-4 leukemia
OVCAR-3 ovarian = tested on: OVCAR-3 ovarian
SK-OV-3 ovarian = tested on: SK-OV-3 ovarian
SNB-75 CNS = tested on: SNB-75 CNS
SF-295 CNS = tested on: SF-295 CNS
T-47D breast = tested on: T-47D breast
MDA-MB-468 breast = tested on: MDA-MB-468 breast
HT29 colon = tested on: HT29 colon
U251 CNS = tested on: U251 CNS
CCRF-CEM leukemia = tested on: CCRF-CEM leukemia
HCC-2998 colon = tested on: HCC-2998 colon
RPMI-8226 leukemia = tested on: RPMI-8226 leukemia
SK-MEL-28 melanoma = tested on: SK-MEL-28 melanoma
NCI/ADR-RES ovarian = tested on: NCI/ADR-RES ovarian
SNB-19 CNS = tested on: SNB-19 CNS
HOP-62 NSCLC = tested on: HOP-62 NSCLC
A498 renal = tested on: A498 renal
CAKI-1 renal = tested on: CAKI-1 renal
NCI-H522 lung = tested on: NCI-H522 lung
786-0 renal = tested on: 786-0 renal
EKVX NSCLC = tested on: EKVX NSCLC
DU-145 prostate = tested on: DU-145 prostate

COc1ccc(-c2ccnc(SCc3cc4cc(OC)ccc4[nH]c3=O)n2)cc1
GI50 (ACHN renal): 20.6 µM | TGI (ACHN renal): > 100 µM | GI50 (PC-3 prostate): 6.96 µM | TGI (PC-3 prostate): > 100 µM | GI50 (NCI-H460 lung): 7.41 µM | TGI (NCI-H460 lung): > 100 µM | GI50 (HCT-116 colon): 3.64 µM | TGI (HCT-116 colon): > 100 µM | GI50 (COLO 205 colon): 17.3 µM | TGI (COLO 205 colon): > 100 µM | GI50 (IGROV1 ovarian): 5.66 µM | TGI (IGROV1 ovarian): > 100 µM | GI50 (NCI-H226 lung): 8.14 µM | TGI (NCI-H226 lung): > 100 µM | GI50 (OVCAR-8 ovarian): 22.8 µM | TGI (OVCAR-8 ovarian): > 100 µM | GI50 (BT-549 breast): 3.4 µM | TGI (BT-549 breast): > 100 µM | GI50 (UACC-62 melanoma): 4.62 µM | TGI (UACC-62 melanoma): > 100 µM | GI50 (OVCAR-4 ovarian): 17.6 µM | TGI (OVCAR-4 ovarian): > 100 µM | GI50 (SR leukemia): 2.95 µM | TGI (SR leukemia): > 100 µM | GI50 (MALME-3M melanoma): 17 µM | TGI (MALME-3M melanoma): > 100 µM | GI50 (SF-268 CNS): 17.7 µM | TGI (SF-268 CNS): > 100 µM | GI50 (UO-31 renal): 8.94 µM | TGI (UO-31 renal): > 100 µM | GI50 (K-562 leukemia): 2.55 µM | TGI (K-562 leukemia): > 100 µM | GI50 (OVCAR-5 ovarian): 23.6 µM | TGI (OVCAR-5 ovarian): > 100 µM | GI50 (MCF7 breast): 4.65 µM | TGI (MCF7 breast): > 100 µM | GI50 (UACC-257 melanoma): 74.5 µM | TGI (UACC-257 melanoma): > 100 µM | GI50 (SF-539 CNS): 6.67 µM | TGI (SF-539 CNS): > 100 µM | GI50 (KM12 colon): 9.43 µM | TGI (KM12 colon): > 100 µM | GI50 (SN12C renal): 7.41 µM | TGI (SN12C renal): > 100 µM | GI50 (A549 NSCLC): 10.1 µM | TGI (A549 NSCLC): > 100 µM | GI50 (SK-MEL-5 melanoma): 4.95 µM | TGI (SK-MEL-5 melanoma): 38 µM | GI50 (HCT-15 colon): 4.33 µM | TGI (HCT-15 colon): > 100 µM | GI50 (SK-MEL-2 melanoma): 6.27 µM | TGI (SK-MEL-2 melanoma): > 100 µM | GI50 (RXF 393 renal): 4.42 µM | TGI (RXF 393 renal): > 100 µM | GI50 (TK-10 renal): 26.1 µM | TGI (TK-10 renal): > 100 µM | GI50 (NCI-H23 lung): 19 µM | TGI (NCI-H23 lung): > 100 µM | GI50 (MDA-MB-435): 3.17 µM | TGI (MDA-MB-435): > 100 µM | GI50 (M14 melanoma): 7.31 µM | TGI (M14 melanoma): > 100 µM | GI50 (HL-60(TB) leukemia): 2.34 µM | TGI (HL-60(TB) leukemia): > 100 µM | GI50 (HOP-92 NSCLC): 7.95 µM | TGI (HOP-92 NSCLC): > 100 µM | GI50 (MOLT-4 leukemia): 3.26 µM | TGI (MOLT-4 leukemia): > 100 µM | GI50 (OVCAR-3 ovarian): 17.9 µM | TGI (OVCAR-3 ovarian): > 100 µM | GI50 (SK-OV-3 ovarian): 56.3 µM | TGI (SK-OV-3 ovarian): > 100 µM | GI50 (SNB-75 CNS): 2.46 µM | TGI (SNB-75 CNS): 71.4 µM | GI50 (SF-295 CNS): 7.09 µM | TGI (SF-295 CNS): > 100 µM | GI50 (T-47D breast): 4.97 µM | TGI (T-47D breast): > 100 µM | GI50 (MDA-MB-468 breast): 2.09 µM | TGI (MDA-MB-468 breast): 6.16 µM | GI50 (HT29 colon): 5.38 µM | TGI (HT29 colon): > 100 µM | GI50 (U251 CNS): 12.4 µM | TGI (U251 CNS): > 100 µM | GI50 (CCRF-CEM leukemia): 6.66 µM | TGI (CCRF-CEM leukemia): > 100 µM | GI50 (HCC-2998 colon): 31.4 µM | TGI (HCC-2998 colon): > 100 µM | GI50 (RPMI-8226 leukemia): 5.05 µM | TGI (RPMI-8226 leukemia): > 100 µM | GI50 (SK-MEL-28 melanoma): 14.1 µM | TGI (SK-MEL-28 melanoma): > 100 µM | GI50 (NCI/ADR-RES ovarian): 4.06 µM | TGI (NCI/ADR-RES ovarian): > 100 µM | GI50 (SNB-19 CNS): 35.2 µM | TGI (SNB-19 CNS): > 100 µM | GI50 (HOP-62 NSCLC): 10.9 µM | TGI (HOP-62 NSCLC): 97.9 µM | GI50 (A498 renal): > 100 µM | TGI (A498 renal): > 100 µM | GI50 (CAKI-1 renal): 6.11 µM | TGI (CAKI-1 renal): > 100 µM | GI50 (NCI-H522 lung): 7.82 µM | TGI (NCI-H522 lung): > 100 µM | GI50 (786-0 renal): 26 µM | TGI (786-0 renal): > 100 µM | GI50 (EKVX NSCLC): 4.16 µM | TGI (EKVX NSCLC): > 100 µM | GI50 (DU-145 prostate): 34.9 µM | TGI (DU-145 prostate): > 100 µM

Reference: PubChem BioAssay (NCI)
